# Measurements published in patent US9193954B2, “Methods and compositions for mesenchymal stem cell proliferation” (priority 2011, dated 2015).
# Key:
# Assay type in all cases: cell-based, human
# [1] = system: PEG-encapsulated hMSCs; assay: LIVE/DEAD confocal imaging of PEG-encapsulated BIO-treated hMSC cultures; settings: no detectable dead cells
# Description: (§1) FIG. 7 Schematic representation of 18 day PEG-encapsulated hMSC culture after 24 hr exposure to BIO-containing media (A). Cell DNA concentration was quantified on days 0, 1, 5, 12, and 18 and shown to undergo a dose-dependent, BIO-mediated increase in proliferation (B), as previously shown in two-dimensional cultures. Representative LIVE/DEAD confocal images of PEG-encapsulated BIO-treated hMSC cultures (C).
# (§2) Encapsulated hMSC viability, BIO treatment, and assessment of gene expression was performed as described in Section 2.3 with exception of cell lysate collection. For assessment of gene expression hMSC-PEG constructs were homogenized in lysis buffer and centrifuged to pellet polymerized PEG. The supernatant was then collected for analysis.
# [2] = system: PEG-encapsulated hMSCs; assay: PEG-encapsulated hMSC proliferation by total cellular DNA concentration (PicoGreen)
# Protocol: as §1
# A 10 wt % solution of PEGDM was prepared in phosphate buffered saline (PBS) with 2.0 mM acryloyl-PEG-RGDS. The photoinitiator lithium phenyl-2,4,6-trimethylbenzoylphosphinate (LAP) was synthesized using conventional techniques and added at a final concentration of 0.05 wt %. Trypsinized hMSCs were centrifuged to form pellets and counted. The PEG macromer solution was added to the cell pellet, and volumes were adjusted to achieve a final cell concentration of 25 million cells/mL. Using a sterile 1 mL syringe with the tip removed as a mold, 40 μL of PEG/cell solution was added and exposed to long-wavelength 365 nm light (5 mW/cm^2 intensity) for 10 min at room temperature. […]
# Encapsulated hMSC proliferation was assessed using total cellular DNA concentration, assuming constant DNA per cell, using a Quant-iT PicoGreen dsDNA Assay Kit (Invitrogen). […]
# [3] = system: hMSCs; assay: Two-dimensional hMSC proliferation by manual cell counts (trypan blue, hemocytometer); settings: for increase in cell population compared to untreated controls: day 41, 24 hr treatment
# Protocol: FIG. 4 Schematic representation of 41 day hMSC monolayer culture after 24 hr exposure to BIO-containing media (A). Cells were trypsinized and manually counted on days 0, 1, 3, 6, 19, 27, 34, 37, and 41 and shown to undergo a dose-dependent, BIO-mediated increase in proliferation (B).
# hMSCs or C3H10T1/2s were seeded at a density of 5,000 cell/cm^2 in 24-well tissue culture plates (Greiner Bio-One, Monroe, N.C.) and allowed to become adherent over a period of 24 hrs prior to treatment. BIO was solubilized in dimethyl sulfoxide (DMSO) to prepare 200 and 500 μM stock solutions. 10 μL of BIO in DMSO was added to 1 mL of culture media so that the final concentrations of 0, 2, and 5 μM were achieved. The cells were cultured with BIO-containing media for 24 hrs after which media was replaced by media without BIO, as illustrated in FIGS. 4a and 7a (two-dimensional treatment and three-dimensional treatment respectively).
# During culture, hMSC viability was periodically assessed using an alamarBlue metabolic assay (AbD Serotec, UK). Culture media was replaced with a 10% alamarBlue-media solution and allowed to incubate at 37° C. for 2 hr. After incubation, alamarBlue solution was transferred to black 96-well plates and media was refreshed. Fluorescence intensity was measured using a Tecan Infinite 200 PRO plate-reader (excitation/emission: 570/600 nm). To assess hMSC proliferation, cells were trypsinized and counted using trypan blue exclusion and a hemocytometer. Average cell counts were normalized to data collected on day 0 to illustrate the effect of BIO on hMSC proliferation over time.
# [4] = system: markers of undifferentiated stem cells, Sox2, Nanog, and Oct4; assay: RT-PCR of Sox2, Nanog, Oct4 in PEG-encapsulated BIO-treated hMSCs; settings: for Nanog gene expression relative to untreated controls / Oct4 gene expression relative to untreated controls / Sox2 gene expression relative to untreated controls: 5 μM BIO
# Protocol: RT-PCR was used to assess gene expression of hMSCs over time. At days: 0 (before BIO treatment), 1, 3, 6, 19, 29, 34, 37, and 41, samples were lysed and total RNA was isolated (ENZA Total RNA Kit, Omega). Reverse transcription was performed using the iScript cDNA Synthesis Kit (Bio-Rad). The reverse transcription reaction was incubated at 25° C. for 5 min, 42° C. for 30 min, and terminated at 85° C. for 5 min. PCR was performed using a CFX96 Real-Time PCR System (Bio-Rad), monitoring sybrgreen products (SsoFastEvaGreen Master Mix, Bio-Rad). Primers for β-actin, sex determining region Y-box 2 (Sox2), Nanog homobox (Nanog), and octamer-binding transcription factor 4 (Oct4), core-binding factor subunit alpha-1 (Cbfa1, also known as Runx2), sex determining region Y-box 9 (Sox9), and peroxisome proliferator-activated receptor gamma (PPARγ) were used (Table 2). The PCR parameters used were as follows: hold at 95° C. for 5 min, followed by 40 cycles of: 95° C. for 15 sec denaturation, 60° C. (β-actin, Sox2, Sox9), or 57° C. (Nanog, Oct4, Cbfa1), or 55° C. (PPARγ) for 60 sec annealing, and 72° C. for 20 sec extension. Threshold cycle (CT) analysis was used to quantify PCR products normalized to the cellular housekeeping gene β-actin. Relative gene quantification was performed using the Pfaffl Method, taking into account the variation between primer efficiencies.
# A 10 wt % solution of PEGDM was prepared in phosphate buffered saline (PBS) with 2.0 mM acryloyl-PEG-RGDS. The photoinitiator lithium phenyl-2,4,6-trimethylbenzoylphosphinate (LAP) was synthesized using conventional techniques and added at a final concentration of 0.05 wt %. Trypsinized hMSCs were centrifuged to form pellets and counted. The PEG macromer solution was added to the cell pellet, and volumes were adjusted to achieve a final cell concentration of 25 million cells/mL. Using a sterile 1 mL syringe with the tip removed as a mold, 40 μL of PEG/cell solution was added and exposed to long-wavelength 365 nm light (5 mW/cm^2 intensity) for 10 min at room temperature. After photopolymerization was complete, the cell/hydrogel disks were removed from the syringes and placed in 24-well tissue culture plates (Greiner Bio-One, Monroe, N.C.) with growth media. The constructs were cultured up to 3 weeks at 37° C. and 5% CO2 with media changes occurring every three days.
# as §2
smiles,measurement,setting,value
"O=C1Nc2cc(Br)ccc2/C1=C1/Nc2ccccc2/C1=N\O [BIO, 6-bromoindirubin-3′-oxime]",live cells (LIVE/DEAD imaging),[1],~100%
same,3D proliferation relative to untreated control,[2]; 5 uM BIO,120%
same,increase in proliferation (normalized DNA concentration) versus 0 μM,"[2]; 5 μM BIO, at both days 12 and 18, PEG hydrogels",20%
same,2D proliferation relative to untreated control,[3]; 2 uM BIO,155%
same,increase in cell population compared to untreated controls,[3]; 2 μM BIO,4.5 fold
same,2D proliferation relative to untreated control,[3]; 5 uM BIO,172%
same,increase in cell population compared to untreated controls,[3]; 5 μM BIO,5.5 fold
same,hMSC population increase,"[3]; BIO-treated hMSCs, concentration and day not stated",~4 fold
same,"time at which Sox2, Nanog, and Oct4 expression returned to basal levels",[4]; PEG hydrogel-encapsulated hMSCs,~18 days
same,Nanog gene expression relative to untreated controls,"[4]; day 1, PEG-encapsulated",2.4 fold
same,Oct4 gene expression relative to untreated controls,"[4]; day 1, PEG-encapsulated",3.5 fold
same,Sox2 gene expression relative to untreated controls,"[4]; day 1, PEG-encapsulated",2.2 fold
same,Nanog gene expression relative to untreated controls,"[4]; day 12, PEG-encapsulated",2.7 fold
same,Oct4 gene expression relative to untreated controls,"[4]; day 12, PEG-encapsulated",4.3 fold
same,Sox2 gene expression relative to untreated controls,"[4]; day 12, PEG-encapsulated",4.1 fold
